Experimental data: paper PMC5100981 (Antiviral research, 2016)
Read-outs that look alike come from different tables or passages of the source.

What was measured:
[1] = tested on: Enterovirus D68 (Fermon strain); assay: CPE inhibition assay; format: cell-based; conditions: for EC50: Enterovirus D, RD, read-out: EC50, 50% effective (virus-inhibitory) concentration
in vitro [2] = conditions: human
[3] = tested on: Rhinovirus 87 (F02-3607 Corn strain); assay: CPE inhibition assay; format: cell-based
[4] = tested on: Enterovirus 71 (Tainan/4643/98 strain); assay: CPE inhibition assay; format: cell-based
[5] = tested on: EV-D68 (US/KY/14-18953 strain); assay: Virus yield reduction; format: cell-based, Enterovirus D68
EV-D68/US/KY/14-18953 [6] = assay: CPE inhibition; format: cell-based, Enterovirus D68; conditions: for EC50: Enterovirus D, EVD68, HeLa Ohio1, read-out: EC50, 50% effective concentration; for SI, selectivity index (CC50 / EC50): HeLa-Ohio-1 cells
in vitro [7] = conditions: human, uninfected A549 lung carcinoma cells, stationary monolayers
EV-D68/US/KY/14-18953 [8] = assay: CPE inhibition; format: cell-based, Enterovirus D68; conditions: for SI, selectivity index (CC50 / EC50): A549 cells; for EC50: Enterovirus D, EVD68, A549, read-out: EC50, 50% effective concentration
[9] = tested on: RD human rhabdomyosarcoma cells
EV-71 = conditions: ref Zhang et al., 2013; cited from earlier work
[10] = Enterovirus D68/Fermon, RD cells
[11] = EV-D68 US/KY/14-18953, RD cells

Structure (SMILES)	SI, selectivity index (CC50 / EC50) [1]	EC50 [1] [µM]	CC50 (in vitro [2]) [µM]	SI, selectivity index (CC50 / EC50) [3]	SI, selectivity index (CC50 / EC50) [4]	SI, selectivity index (CC50 [from Table 1] / EC90) [5]	EC50 (EV-D68/US/KY/14-18953 [6]) [µM]	SI, selectivity index (CC50 / EC50) (EV-D68/US/KY/14-18953 [6])	CC50 (in vitro [7]) [µM]	SI, selectivity index (CC50 / EC50) [1, 10]	CC50 (in vitro [2]; uninfected RD rhabdomyosarcoma cells, stationary monolayers) [µM]	SI, selectivity index (CC50 / EC50) ([3]; Rhinovirus 87, RD cells)	SI, selectivity index (CC50 / EC50) ([4]; Enterovirus 71, RD cells)	SI, selectivity index (CC50 [from Table 1] / EC90) [5, 11]	SI, selectivity index (CC50 / EC50) (EV-D68/US/KY/14-18953 [8])	EC50 (EV-D68/US/KY/14-18953 [8]) [µM]	Overall activity against EV-D68 virus (in words) ([5]; CPE inhibited at much lower concentration than virus yield)	CC50 [9] [µM]	Treatment of EV-71 infection in suckling mice (mortality and clinical scores) (EV-71)
Nc1cc2nc[nH]c2c(=O)[nH]1 [3-Deazaguanine, 3-deazaguanine]	54	6.7 ± 1.6	360 ± 227	45	5	45													
CC(C)S(=O)(=O)n1c(N)nc2ccc(/C(=N/O)c3ccccc3)cc21 [Enviroxime, enviroxime]		0.27 ± 0.19					1.7 ± 0.72	45	68 ± 13	352	66 ± 28	500	92	156	89	0.77 ± 1.1			
CCOC(=O)c1ccc(OCCC2CCN(c3ccc(C)nn3)CC2)cc1 [Pirodavir, pirodavir]		7 ± 3					6.1 ± 2.8	5.3		3			24	<1	13	11 ± 7.2	poorly effective	32 ± 18	
Cc1cc(CCCOc2c(C)cc(-c3noc(C(F)(F)F)n3)cc2C)on1 [Pleconaril, pleconaril]	87	0.13 ± 0.09	11.3 ± 6.3	7		54													
NC(=O)c1ncn([C@@H]2O[C@H](CO)[C@@H](O)[C@H]2O)n1 [Ribavirin, ribavirin]		147 ± 74	1100 ± 450																
CCOC(=O)/C=C/[C@H](C[C@@H]1CCNC1=O)NC(=O)[C@@H](CC(=O)[C@@H](NC(=O)c1cc(C)on1)C(C)C)Cc1ccc(F)cc1 [Rupintrivir, rupintrivir]	60910	0.0022	134 ± 21	25280	7450	33,500													effective
